The source made the active and inactive calls.
Columns and labels:
[1] = target: Phosphoethanolamine/phosphocholine phosphatase (Homo sapiens, UniProt Q8TCT1); experiment: SAR assay for compounds that inhibit PHOSPHO1. [Related pubchem assays (depositor defined):AID1545, AID1565, AID1574]
[2] = target: T1, Mannose-6-phosphate isomerase (Homo sapiens, UniProt P34949); experiment: PMI enzyme inhibitors, confirmation, biochemical, fluorescence intensity (AID 1535)
T1 sequence (P34949 whole entry): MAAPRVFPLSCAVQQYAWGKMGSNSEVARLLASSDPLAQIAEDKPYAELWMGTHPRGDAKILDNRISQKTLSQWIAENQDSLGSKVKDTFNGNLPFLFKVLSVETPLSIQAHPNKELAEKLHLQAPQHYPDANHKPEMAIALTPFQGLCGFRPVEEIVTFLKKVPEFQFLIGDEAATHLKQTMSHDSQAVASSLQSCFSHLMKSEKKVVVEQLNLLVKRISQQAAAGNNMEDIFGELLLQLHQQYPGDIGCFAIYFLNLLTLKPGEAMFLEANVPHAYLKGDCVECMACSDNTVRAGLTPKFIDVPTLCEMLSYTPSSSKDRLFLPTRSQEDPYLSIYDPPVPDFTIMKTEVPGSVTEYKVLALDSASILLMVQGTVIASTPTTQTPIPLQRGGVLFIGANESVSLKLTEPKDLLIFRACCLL

Phosphomannomutase 2 = Phosphomannomutase 2 (Homo sapiens, UniProt O15305); experiment: Counter screen SAR assay for PMM2 inhibitors via a fluorescence intensity assay. [Related pubchem assays (depositor defined):AID1545, AID1574]
Hexokinase-1 = target: T2, Hexokinase-1 (Homo sapiens, UniProt P19367); experiment: HK1 enzyme inhibition by HKDC1 hits, SAR follow-up, selectivity assay for HKDC1 inhibitor project, biochemical, set 2, resazurin fluorescence coupled readout (AID 588356); type: functional
T2 sequence (P19367 whole entry): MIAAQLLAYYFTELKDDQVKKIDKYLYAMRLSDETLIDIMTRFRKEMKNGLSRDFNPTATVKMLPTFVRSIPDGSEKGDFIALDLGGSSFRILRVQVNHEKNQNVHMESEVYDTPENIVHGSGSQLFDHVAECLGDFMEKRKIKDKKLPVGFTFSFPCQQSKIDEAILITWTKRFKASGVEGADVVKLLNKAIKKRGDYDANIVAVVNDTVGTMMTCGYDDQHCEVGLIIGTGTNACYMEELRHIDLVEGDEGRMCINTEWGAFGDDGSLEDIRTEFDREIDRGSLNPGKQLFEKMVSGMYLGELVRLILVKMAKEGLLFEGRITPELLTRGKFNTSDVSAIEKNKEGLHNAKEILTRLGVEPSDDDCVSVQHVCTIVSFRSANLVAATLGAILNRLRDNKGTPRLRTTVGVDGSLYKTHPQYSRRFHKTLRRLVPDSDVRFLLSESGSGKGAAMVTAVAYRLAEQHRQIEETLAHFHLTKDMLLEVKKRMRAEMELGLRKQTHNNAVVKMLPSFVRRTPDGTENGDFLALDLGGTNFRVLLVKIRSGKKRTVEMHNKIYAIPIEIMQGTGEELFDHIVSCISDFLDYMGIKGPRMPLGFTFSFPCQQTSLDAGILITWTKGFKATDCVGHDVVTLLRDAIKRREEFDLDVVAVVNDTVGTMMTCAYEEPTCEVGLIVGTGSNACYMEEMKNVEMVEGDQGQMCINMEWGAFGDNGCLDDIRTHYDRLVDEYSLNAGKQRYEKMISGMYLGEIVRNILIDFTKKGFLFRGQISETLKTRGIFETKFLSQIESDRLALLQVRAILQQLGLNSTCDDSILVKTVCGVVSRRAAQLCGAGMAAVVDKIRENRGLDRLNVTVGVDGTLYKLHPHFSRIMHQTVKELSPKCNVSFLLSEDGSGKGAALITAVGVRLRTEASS

Hexokinase HKDC1 = target: T3, Hexokinase HKDC1 (Homo sapiens, UniProt Q2TB90); experiment: HKDC1 hexokinase inhibitors, SAR follow-up, biochemical, set 2 (AID 588355); type: functional
T3 sequence (Q2TB90 whole entry): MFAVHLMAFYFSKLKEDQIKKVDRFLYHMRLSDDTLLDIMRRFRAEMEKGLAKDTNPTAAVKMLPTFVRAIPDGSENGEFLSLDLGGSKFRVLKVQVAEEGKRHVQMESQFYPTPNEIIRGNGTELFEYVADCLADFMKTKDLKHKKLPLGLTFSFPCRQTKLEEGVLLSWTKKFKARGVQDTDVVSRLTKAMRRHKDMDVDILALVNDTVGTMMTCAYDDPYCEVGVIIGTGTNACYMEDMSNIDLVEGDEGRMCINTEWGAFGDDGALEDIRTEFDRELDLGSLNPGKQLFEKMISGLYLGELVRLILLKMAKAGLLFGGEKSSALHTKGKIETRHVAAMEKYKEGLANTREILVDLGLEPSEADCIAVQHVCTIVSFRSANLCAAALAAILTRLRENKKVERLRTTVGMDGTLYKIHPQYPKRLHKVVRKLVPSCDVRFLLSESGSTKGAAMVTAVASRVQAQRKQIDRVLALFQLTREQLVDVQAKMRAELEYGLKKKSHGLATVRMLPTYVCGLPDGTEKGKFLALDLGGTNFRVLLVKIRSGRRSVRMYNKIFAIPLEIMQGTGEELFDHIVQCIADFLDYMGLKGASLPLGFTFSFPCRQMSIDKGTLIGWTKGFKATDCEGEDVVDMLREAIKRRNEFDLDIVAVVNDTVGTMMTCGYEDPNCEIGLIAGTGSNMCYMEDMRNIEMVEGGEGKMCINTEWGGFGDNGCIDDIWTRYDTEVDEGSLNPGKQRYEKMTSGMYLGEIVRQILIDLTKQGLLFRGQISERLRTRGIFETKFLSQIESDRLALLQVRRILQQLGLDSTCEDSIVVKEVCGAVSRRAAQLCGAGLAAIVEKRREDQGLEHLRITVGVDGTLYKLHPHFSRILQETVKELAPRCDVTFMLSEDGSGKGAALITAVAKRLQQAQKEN

[3] = cytotoxicity in HMLE control line with eGFP shRNA, dose response, counter-screen for HMLE_sh_ECad selective toxicity project, cell-based, HMLE_sh_eGFP, luminescence (AID 463074); type: functional, Homo sapiens;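 also: HMLE human mammary epithelial cells expressing control shRNA against eGFP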
[4] = Luminescence Cell-Based Dose Retest to Confirm Inhibitors of Cancer Stem Cells. [Related pubchem assays (depositor defined):AID2717, AID2721]; type: functional; conditions: Homo sapiens
MDCK [5] = experiment: MDCK cell cytotoxicity, dose response, cytotoxicity control (AID 540296); type: functional; conditions: Canis lupus familiaris
MDCK [6] = experiment: antiviral activity against H1N1 influenza, dose response, cell-based, strain KY180 (AID 540254); type: functional; conditions: Canis lupus familiaris
Nonstructural protein 1 = Nonstructural protein 1 (Influenza A virus, UniProt Q194T2); type: functional, Influenza A virus (A/California/07/2009(H1N1))
[7] = target: Dual specificity tyrosine-phosphorylation-regulated kinase 1A (Rattus norvegicus, UniProt Q63470); type: biochemical, Homo sapiens
[8] = target: Heat shock protein HSP 90-alpha (Homo sapiens, UniProt P07900); type: functional, organism-based
[9] = Luminescence Cell-Based/Microorganism Confirmation at Dose of Inhibitors of Trypanosoma cruzi Infection. [Related pubchem assays: 1885, 1968 ]; type: functional
[10] = inhibitors of intracellular T. cruzi replication, confirmation, NIH3T3 host cells, beta-gal luminescence (AID 2044); type: functional, cell-based;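 also: intracellular parasites grown in NIH/3T3 mouse fibroblasts as host cells; luminescent beta-galactosidase reporter signal from transgenic T. cruzi replicating inside host cells; inhibitors lower the luminescence signal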
[11] = inhibitors of Trypanosoma cruzi host-cell infection, confirmation, beta-gal luminescence, NIH3T3 host cells (AID 2630); type: functional, cell-based; conditions: Mus musculus
[12] = Luminescence Cell-Based Secondary HTS screen to identify cytotoxic compounds of NIH3T3 cells. [Related pubchem assays: 1885, 1968 ]; type: functional
[13] = cytotoxicity toward NIH3T3 fibroblasts, dose response, counter-screen, cell-based, ATP luminescence, mouse fibroblasts (AID 2010); type: functional;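 also: cells exposed to compound for about 90 hours before reading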
[14] = target: Intestinal-type alkaline phosphatase (Mus musculus, UniProt P24822); experiment: PubChem AID 488875; type: functional
[15] = target: T4, Intestinal-type alkaline phosphatase (Homo sapiens, UniProt P09923); experiment: human IAP activators, dose response, biochemical, luminescent, uHTS hits, set 2 (AID 488817); type: functional;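 also: potency of activators that raise enzyme activity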
[16] = target: T4, Intestinal-type alkaline phosphatase; experiment: human intestinal alkaline phosphatase activators, dose response, biochemical, luminescence, uHTS hits (AID 463120); type: functional
[17] = target: T5, Alkaline phosphatase, tissue-nonspecific isozyme (Homo sapiens, UniProt P05186); experiment: TNAP enzyme activators, dose response, selectivity assay for human IAP activator project, biochemical, TNAP isozyme, human IAP uHTS hits (AID 488886); type: functional;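 also: potency of compounds raising TNAP activity as a selectivity check on IAP activators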
T5 sequence (P05186 whole entry): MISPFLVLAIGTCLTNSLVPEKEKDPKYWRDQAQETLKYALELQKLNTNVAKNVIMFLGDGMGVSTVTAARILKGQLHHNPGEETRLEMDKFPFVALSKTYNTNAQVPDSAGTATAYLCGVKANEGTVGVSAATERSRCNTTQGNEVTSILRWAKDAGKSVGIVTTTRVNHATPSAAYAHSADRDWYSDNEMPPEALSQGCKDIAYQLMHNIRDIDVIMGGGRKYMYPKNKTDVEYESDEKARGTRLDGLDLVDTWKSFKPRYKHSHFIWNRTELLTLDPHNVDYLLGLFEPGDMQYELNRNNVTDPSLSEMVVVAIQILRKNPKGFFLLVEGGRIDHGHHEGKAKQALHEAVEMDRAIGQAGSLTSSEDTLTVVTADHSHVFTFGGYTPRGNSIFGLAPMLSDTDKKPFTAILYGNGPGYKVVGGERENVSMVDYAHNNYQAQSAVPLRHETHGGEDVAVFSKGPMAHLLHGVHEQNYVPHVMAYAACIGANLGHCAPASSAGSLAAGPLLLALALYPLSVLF

HeLa = experiment: HeLa cell cytotoxicity, dose response, cytotoxicity control for MITF activator project, CellTiter-Glo luminescence, cherry-pick samples (AID 540259); type: functional, cell-based; conditions: Homo sapiens
Keap1/Nrf2 = Keap1/Nrf2 (Homo sapiens, UniProt Q14145); experiment: Keap1-Nrf2 protein-protein interaction inhibitors, dose response, biochemical, fluorescence polarization, cherry-picked samples (AID 588683)
[18] = target: T6, Short transient receptor potential channel 4 (Mus musculus, UniProt Q9QUQ5); experiment: SAR Analysis for the identification of selective inhibits of the transient receptor potential cation channel C4 (TRPC4): Automated Electrophysiology_2. [Related pubchem assays (depositor defined):AID2256]; type: functional
T6 sequence (Q9QUQ5 whole entry): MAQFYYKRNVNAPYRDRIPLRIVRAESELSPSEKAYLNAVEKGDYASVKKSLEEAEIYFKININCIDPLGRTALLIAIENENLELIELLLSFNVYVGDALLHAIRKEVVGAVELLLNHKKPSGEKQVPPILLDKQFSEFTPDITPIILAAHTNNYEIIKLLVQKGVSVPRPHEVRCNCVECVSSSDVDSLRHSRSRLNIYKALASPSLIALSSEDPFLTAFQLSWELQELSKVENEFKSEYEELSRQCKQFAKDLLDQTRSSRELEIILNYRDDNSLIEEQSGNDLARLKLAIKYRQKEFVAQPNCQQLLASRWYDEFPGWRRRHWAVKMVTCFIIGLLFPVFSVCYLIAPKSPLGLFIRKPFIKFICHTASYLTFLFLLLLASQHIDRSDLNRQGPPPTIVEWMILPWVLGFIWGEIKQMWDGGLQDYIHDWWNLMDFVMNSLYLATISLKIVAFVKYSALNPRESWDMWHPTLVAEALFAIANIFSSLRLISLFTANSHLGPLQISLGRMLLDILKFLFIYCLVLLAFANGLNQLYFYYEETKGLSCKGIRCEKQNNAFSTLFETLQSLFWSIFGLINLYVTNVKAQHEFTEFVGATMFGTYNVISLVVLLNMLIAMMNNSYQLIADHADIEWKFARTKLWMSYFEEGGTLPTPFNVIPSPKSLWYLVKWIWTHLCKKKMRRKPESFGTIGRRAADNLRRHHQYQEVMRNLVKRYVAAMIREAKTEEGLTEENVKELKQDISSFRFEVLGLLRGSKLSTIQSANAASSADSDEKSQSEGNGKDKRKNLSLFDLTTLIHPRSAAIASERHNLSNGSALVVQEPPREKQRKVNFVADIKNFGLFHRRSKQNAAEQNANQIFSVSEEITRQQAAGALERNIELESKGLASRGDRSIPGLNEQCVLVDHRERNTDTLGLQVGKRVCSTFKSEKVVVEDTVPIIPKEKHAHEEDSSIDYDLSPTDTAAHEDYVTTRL

T4 sequence (P09923 whole entry): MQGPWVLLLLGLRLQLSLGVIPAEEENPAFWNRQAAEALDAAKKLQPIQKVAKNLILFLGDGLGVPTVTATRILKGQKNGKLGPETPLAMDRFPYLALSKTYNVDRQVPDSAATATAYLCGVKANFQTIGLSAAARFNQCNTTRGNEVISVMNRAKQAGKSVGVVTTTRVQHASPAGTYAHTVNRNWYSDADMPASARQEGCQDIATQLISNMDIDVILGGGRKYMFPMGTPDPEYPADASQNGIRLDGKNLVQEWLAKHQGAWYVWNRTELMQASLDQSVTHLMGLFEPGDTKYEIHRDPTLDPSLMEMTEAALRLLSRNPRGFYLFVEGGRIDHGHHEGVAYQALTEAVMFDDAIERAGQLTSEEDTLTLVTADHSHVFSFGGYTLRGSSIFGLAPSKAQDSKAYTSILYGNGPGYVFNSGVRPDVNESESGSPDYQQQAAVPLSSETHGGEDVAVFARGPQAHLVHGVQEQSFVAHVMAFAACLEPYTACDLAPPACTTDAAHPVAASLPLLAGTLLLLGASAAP
Sequence of Nonstructural protein 1 (Q194T2 whole entry): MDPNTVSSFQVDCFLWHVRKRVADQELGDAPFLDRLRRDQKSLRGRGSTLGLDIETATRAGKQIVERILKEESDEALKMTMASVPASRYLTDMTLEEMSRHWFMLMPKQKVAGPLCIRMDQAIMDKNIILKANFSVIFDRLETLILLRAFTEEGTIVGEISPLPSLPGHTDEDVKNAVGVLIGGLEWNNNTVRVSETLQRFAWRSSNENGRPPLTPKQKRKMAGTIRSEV
Sequence of Keap1/Nrf2 (Q16236 whole entry): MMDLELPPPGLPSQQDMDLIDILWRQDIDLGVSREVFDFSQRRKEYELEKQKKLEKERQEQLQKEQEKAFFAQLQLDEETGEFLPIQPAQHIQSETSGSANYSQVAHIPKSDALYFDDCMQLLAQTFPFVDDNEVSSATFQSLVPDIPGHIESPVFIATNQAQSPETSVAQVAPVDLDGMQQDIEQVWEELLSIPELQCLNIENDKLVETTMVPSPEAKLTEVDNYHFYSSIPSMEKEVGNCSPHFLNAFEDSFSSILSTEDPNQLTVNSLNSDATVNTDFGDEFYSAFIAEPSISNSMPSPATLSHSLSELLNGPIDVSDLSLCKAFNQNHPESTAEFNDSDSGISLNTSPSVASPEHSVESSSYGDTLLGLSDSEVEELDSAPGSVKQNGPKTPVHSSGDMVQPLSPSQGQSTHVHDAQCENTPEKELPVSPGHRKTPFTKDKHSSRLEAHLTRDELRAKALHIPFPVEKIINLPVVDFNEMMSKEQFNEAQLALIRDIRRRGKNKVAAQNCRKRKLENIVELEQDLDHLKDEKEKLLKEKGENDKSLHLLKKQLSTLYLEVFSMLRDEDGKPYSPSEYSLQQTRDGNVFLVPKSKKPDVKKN
Sequence of Keap1/Nrf2 (Q14145 whole entry): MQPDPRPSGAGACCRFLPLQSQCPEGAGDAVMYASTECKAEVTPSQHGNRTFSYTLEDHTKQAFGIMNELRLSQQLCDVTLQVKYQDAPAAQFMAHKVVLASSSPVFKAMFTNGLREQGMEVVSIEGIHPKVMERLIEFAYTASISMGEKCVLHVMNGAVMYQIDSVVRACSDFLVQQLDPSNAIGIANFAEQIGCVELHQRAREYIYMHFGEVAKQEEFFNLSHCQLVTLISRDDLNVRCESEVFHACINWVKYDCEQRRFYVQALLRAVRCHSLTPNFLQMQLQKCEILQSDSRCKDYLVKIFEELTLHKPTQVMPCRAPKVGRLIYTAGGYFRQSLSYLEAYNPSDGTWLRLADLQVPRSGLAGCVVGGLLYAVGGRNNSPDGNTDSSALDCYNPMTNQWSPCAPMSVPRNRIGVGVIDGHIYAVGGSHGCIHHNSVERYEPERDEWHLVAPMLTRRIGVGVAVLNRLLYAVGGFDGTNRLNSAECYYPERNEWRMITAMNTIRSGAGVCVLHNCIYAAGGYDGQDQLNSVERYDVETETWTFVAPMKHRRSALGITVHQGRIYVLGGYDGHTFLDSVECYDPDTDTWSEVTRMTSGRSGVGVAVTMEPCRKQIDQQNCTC
Sequence of Phosphoethanolamine/phosphocholine phosphatase (Q8TCT1 whole entry): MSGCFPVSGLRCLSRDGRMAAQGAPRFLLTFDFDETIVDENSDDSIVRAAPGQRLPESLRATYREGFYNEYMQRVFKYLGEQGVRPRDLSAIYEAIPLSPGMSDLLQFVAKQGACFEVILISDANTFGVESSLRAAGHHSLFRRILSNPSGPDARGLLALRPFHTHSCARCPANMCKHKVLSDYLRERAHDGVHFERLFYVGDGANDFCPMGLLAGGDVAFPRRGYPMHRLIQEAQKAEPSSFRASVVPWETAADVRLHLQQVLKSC
Sequence of Phosphomannomutase 2 (O15305 whole entry): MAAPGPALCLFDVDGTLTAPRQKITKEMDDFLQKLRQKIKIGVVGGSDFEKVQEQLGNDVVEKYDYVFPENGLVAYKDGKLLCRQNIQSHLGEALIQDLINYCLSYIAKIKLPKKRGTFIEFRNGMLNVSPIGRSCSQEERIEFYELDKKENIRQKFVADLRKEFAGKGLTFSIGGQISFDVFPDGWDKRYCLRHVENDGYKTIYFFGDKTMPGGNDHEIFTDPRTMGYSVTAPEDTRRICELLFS
Sequence of Intestinal-type alkaline phosphatase (Mus musculus, UniProt P24822) (P24822 whole entry): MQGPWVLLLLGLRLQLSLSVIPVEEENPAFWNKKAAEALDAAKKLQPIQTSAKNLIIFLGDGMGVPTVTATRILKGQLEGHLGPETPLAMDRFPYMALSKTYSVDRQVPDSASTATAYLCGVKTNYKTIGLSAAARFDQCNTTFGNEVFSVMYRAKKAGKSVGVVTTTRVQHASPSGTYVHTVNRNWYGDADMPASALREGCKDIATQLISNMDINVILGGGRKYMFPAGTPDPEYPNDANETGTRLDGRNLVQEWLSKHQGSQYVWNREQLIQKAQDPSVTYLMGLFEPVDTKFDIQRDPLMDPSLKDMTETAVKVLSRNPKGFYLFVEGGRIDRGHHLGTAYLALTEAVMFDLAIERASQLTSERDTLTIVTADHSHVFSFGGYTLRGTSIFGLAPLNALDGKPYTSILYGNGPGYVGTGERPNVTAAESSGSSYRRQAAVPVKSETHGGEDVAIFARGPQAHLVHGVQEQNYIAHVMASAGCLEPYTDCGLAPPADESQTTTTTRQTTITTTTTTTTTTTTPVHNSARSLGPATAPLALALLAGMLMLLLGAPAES

## O=c1c2c([N+](=O)[O-])cc([N+](=O)[O-])cc2sn1-c1cccc(F)c1
[1]
  IC50: 0.0348 µM (active)
[2]
  IC50: 30.1 µM (active)
Phosphomannomutase 2
  IC50: 2.08 µM (active)

## Cc1ccc(NC2c3ccccc3C(=O)N2c2ccccc2C)cc1 (centres undefined)
Hexokinase-1
  IC50: > 80 µM (inactive)
Hexokinase HKDC1
  IC50: > 80 µM (inactive)

## Cc1ccc2ncnc(Nc3ccc(C)c(C)c3)c2c1
[3]
  AC50: 63.8 µM (active)
[4]
  AC50: 1.03 µM (active)

## CCOC(=O)c1c(CN(C)C)oc2cc(CN(C)C)c(O)c(CSc3ccccc3)c12
MDCK [5]
  CC50: 19.5 µM (active)
MDCK [6]
  IC50: 22.6 µM (active)
Nonstructural protein 1
  IC50: > 100 µM (active)

## O=[N+]([O-])c1cc(/C=N/O)ccc1Oc1ccccc1Cl
[7]
  AC50: 3.19 µM (active)
[8]
  AC50: 3.04 µM (active)

## Cc1ccccc1OCCCCCn1ccnc1
[9]
  EC50: 0.417 µM (active)
[10]
  EC50: 0.54 µM (active)
[11]
  EC50: 0.417 µM (active)
[12]
  EC50: 116 µM (active)
[13]
  EC50: > 60 µM (not active)

## COc1ccc(CN2CCC(n3nccc3NC(=O)CCCc3ccccc3)CC2)cc1C
[14]
  EC50: 75 µM (active)
[15]
  EC50: 72.5 µM (active)
[16]
  EC50: 77.4 µM (active)
[17]
  EC50: 70.1 µM (active)

## CCCN(Cc1ccc(C)cc1)C(=O)c1ccc(CNS(=O)(=O)c2ccc(C(C)=O)cc2)cc1
HeLa
  AC50: 37.4 µM (active)

## CCCCOc1ccc(C2OC34CCCCC3C(C#N)(C#N)C2(C#N)C(=N)O4)cc1 (centres undefined)
Keap1/Nrf2
  AC50: > 52 µM (inactive)

## Cc1cc(N2CCN(c3ccccc3C#N)CC2)nc2ccccc12
[18]
  IC50: 8.9 µM (active)
